The text below walks through data of patent publication USRE39138E1, “Monoclonal antibody specific for advanced glycosylation endproducts in biological samples” (Alteon Incorporated, priority 1994, dated 2006).

The test system of one assay is Hb-AGE. The following applies: diabetic patients treated for 28 days; cited from earlier work.
A further assay has as its system mAb 4G9. Description: competition ELISA: browned compounds compete with plate-bound BSA-AGE for mAb 4G9. The class given is binding, murine. Particulars: concentration based on the original proteins or peptides. On the procedure: Production of AGE proteins. All proteins and peptides were browned with glucose, ribose or glucose 6-phosphate in 300 mM sodium phosphate buffer, pH 7.4, for 8-12 weeks at 37° C. The control proteins were treated the same way except the sugars were omitted.
The competition ELISA was performed by pre-coating microtiter plates with BSA-AGE and blocking with Assay Buffer. The plates was washed and mAb 4G9 and increasing concentrations of the competitors listed in Table 1 were added and simultaneously incubated for 1 hr at 37° C. The unbound materials were removed by extensive washing and the bound mAb was detected with alkaline phosphatase labeled anti-mouse antibodies similar to direct ELISA. All washes were in TBS-T wash solution: all incubations proceeded for 1 hr at 37° C.
(In an ELISA, binding on a coated surface is turned into a signal by an enzyme label.)

The mark [1] stands for this setting: protein or peptide browned with ribose.

For `N=C(N)NN` [aminoguanidine], the “levels of Hb-AGE at the end of the treatment period” value in the assay with Hb-AGE was “significantly decreased”.
As a reminder, the IC50 is the point on the concentration scale where inhibition reaches its midpoint. Turning to Arg-lys, the IC50 in the assay on mAb 4G9 (protein or peptide browned with glucose) was determined as 250 µM; in the assay on mAb 4G9 (setting [1]), 50 µM.
In turn, Hemoglobin returned an IC50 in the assay on mAb 4G9 (setting [1]) of 200 µM.
